Data on eleven compounds can be found in ChEMBL document CHEMBL1134352, “Perspectives in animal health: old targets and new opportunities” (J Med Chem, 2001).

≈ marks a conversion by molar mass, not a printed value.

Data set [1] can be described thus: Oral bioavailability in dog. The format is ADME, organism-based, Canis lupus familiaris. The following applies: in vivo.
The test system of data set [2] is Canis familiaris. As to the kind of experiment: In vivo reduction of flea infestation was determined after an oral administration of 15 mg/kg in dog challenged with 100 fleas at day 0. In kind it is functional, Canis lupus familiaris.
Data set [3] is described as follows: Lethal concentration of compound was determined against fleas. The settings on record: pulicinae.
The species entered for data set [4] is Canis familiaris. As to the kind of experiment: Minimum dose that cause toxicity in dog. In kind it is functional, Canis lupus familiaris.
In data set [5] the test system is Canis familiaris. The experiment in a line: In vivo reduction of flea infestation was determined after an oral administration of 15 mg/kg in dog challenged with 100 fleas at day 6. The format is functional, Canis lupus familiaris.
The test system of data set [6] is Canis familiaris. As to the kind of experiment: In vivo reduction of flea infestation was determined after an oral administration of 15 mg/kg in dog challenged with 100 fleas at day 8. In kind it is functional, Canis lupus familiaris.
Data set [7] relates to Canis familiaris. The experiment in a line: In vivo reduction of flea infestation was determined after an oral administration of 15 mg/kg in dog challenged with 100 fleas at day 4. In kind it is functional, Canis lupus familiaris.
Data set [8] is filed under the species Canis familiaris. The experiment in a line: Flea efficacy in dog. In kind it is functional, Canis lupus familiaris.
Data set [9] concerns the target AF2 neuropeptide receptor. As to the kind of experiment: Compound was evaluated for inhibition of binding to Ascaris suum AF2 neuropeptide receptor.
The species entered for data set [10] is Canis familiaris. The experiment in a line: Flea efficacy in dog.
A short description of data set [11]: Lethal dose in mouse was determined. In kind it is toxicity, organism-based. The settings on record: in vivo.
Data set [12] in a line: Lethal dose in dog was determined. The format is toxicity, organism-based, Canis lupus familiaris. The settings on record: in vivo.
Data set [13] is described as follows: Acute toxicity in mice was determined. The following applies: mouse, in vivo. The format is organism-based.
Another data set has as its system Mus musculus. As to the kind of experiment: Lethality in mouse, by administering the compound at 200 mg/kg; decreased toxicity. The format is functional, organism-based. Also noted: dose 200 mg/kg.
Another data set concerns Equus caballus. The experiment in a line: Compound was evaluated for gastric acid suppression on intravenous administration of a single dose up to 7 hr. In kind it is functional, Stomach.
Another data set deals with Felis catus. The experiment in a line: Percent reduction of fleas on cats by topical application for 1 week. In kind it is functional.

For `CC(C(=O)O)c1ccc2c(c1)[nH]c1ccc(Cl)cc12` (configuration not stated) [CARPROFEN], the bioavailability (commonly the share of a dose that reaches the circulation, judged against a reference dose that is usually intravenous) in [1] was approximately 90%. With `C=C(C)[C@H]1C(=O)c2c3c(cc4c5c(n1c24)[C@@]1(C)C(CC[C@H]2[C@](C)(/C=C/C=C(\C)C(=O)O)[C@@H](O)CC[C@@]21C)C5)C1=CC(C)(C)OC(C)(C)C1[C@@H]3O` (some centres not stated) [NOD ACID A], the Efficacy is on record as 99% with Canis familiaris [2], 51% in the data set on Canis familiaris [5], 0% in the data set on Canis familiaris [6] and 97% with Canis familiaris [7]. Also, in [3], the LC50 (commonly the concentration lethal to half of the exposed cells or organisms) stood at 0.68 µg/mL (≈ 1 µM). Moreover, in the data set listed under Canis familiaris [4], the Dose came out at 6 µg/kg. `C=C(C)[C@H]1C(=O)c2c3c(cc4c5c(n1c24)[C@@]1(C)C(CC[C@H]2[C@](C)(/C=C/C=C(\C)C(=O)N(C)CC)[C@@H](O)CC[C@@]21C)C5)C1=CC(C)(C)OC(C)(C)C1[C@@H]3O` (some centres not stated): the Efficacy in the data set filed under Canis familiaris [8] was 0.1 µg/mL. Turning to `N#Cc1ccnc(-c2nn(-c3c(Cl)cc(C(F)(F)F)cc3Cl)c(=N)s2)c1`, the IC50 (as a rule, the concentration at which inhibition is half-maximal) in data set [9] is 10 nM.

Turning to `N=c1sc(-c2ccccn2)nn1-c1c(Cl)cc(Cl)cc1Cl`, the IC50 in [9] stood at 3000 nM. On to `C=C(C)[C@H]1C(=O)c2c3c(cc4c5c(n1c24)[C@@]1(C)C(CC[C@H]2[C@](C)(/C=C/C=C(\C)C(=O)N4CCN(S(C)(=O)=O)CC4)[C@@H](O)CC[C@@]21C)C5)C1=CC(C)(C)OC(C)(C)C1[C@@H]3O` (some centres not stated) [NODULISPORAMIDE], for which the Efficacy in the data set listed under Canis familiaris [10] worked out at 0.01 µg/mL.

For the compound `CN1C(=O)[C@]23CC4CC(C)(C)[C@@]5(C[C@@]41CN2CC[C@@]3(C)O)C(=O)Nc1c5ccc2c1OC=CC(C)(C)O2` (some centres not stated), the LD50 – broadly, the dose expected to kill half of the subjects tested – in [11] is less than 15 mg/kg; in data set [12], 0.5 mg/kg. `CO[C@H]1C[C@H](O[C@H]2[C@H](C)O[C@@H](OC3/C(C)=C/CC4C[C@@H](C[C@]5(C=C[C@H](C)[C@@H](C(C)C)O5)O4)OC(=O)[C@@H]4C=C(C)[C@@H](O)[C@H]5OC/C(=C\C=C\[C@@H]3C)[C@]54O)C[C@@H]2OC)O[C@@H](C)[C@@H]1O` (some centres not stated) showed an LD50 in data set [13] of 160 mg/kg. Consider `CC[C@@]12C(=O)N(C)[C@@]3(CCC(C)(C)[C@]4(CNc5c4ccc4c5OC=CC(C)(C)O4)C3)CN1CC[C@@]2(C)O`, for which the Lethality result in the data set with Mus musculus is on record as “decreased toxicity”. Regarding `COc1ccc2[nH]c([S+]([O-])Cc3ncc(C)c(OC)c3C)nc2c1` (configuration not stated) [OMEPRAZOLE], in the data set with Equus caballus, the Inhibition (in general, the change of the read-out against control, counted positive when it falls) is reported as more than 90%.

In the case of `C/C=C(\C)C(=O)O[C@H]1C[C@@H](OC(C)=O)[C@@]2(C(=O)OC)CO[C@H]3[C@@H](O)[C@@](C)([C@]45O[C@@]4(C)[C@@H]4C[C@H]5O[C@@H]5OC=C[C@@]54O)[C@H]4[C@]1(CO[C@]4(O)C(=O)OC)[C@@H]32` [AZADIRACHTIN A], the Reduction with Felis catus is reported as 53%.
